This is an account of results in US8362012B2, “Benzoxazine benzimidazole derivative, a pharmaceutical composition comprising the same, and a use thereof” (Daewoong Pharmaceutical Co., Ltd., priority 2008, dated 2013).

The target in assay [1] is T1, human vanilloid-1 (hVR-1) in hVR-1-HEK293 cell line (Homo sapiens, UniProt Q8NER1).
T1 construct: expressed in transfected cells; host or cells: HEK293 Tet-on strain, doxycycline-induced
The assay is described as follows: Inhibitory effect on calcium influx via a vanilloid receptor (capsaicin-stimulated, Fluo-3/AM). The format is cell-based. Conditions: hVR-1-HEK293 cells, 1 μM of capsaicin, compounds 0.015˜2000 nM; read-out: I.A. (inhibitory activity), IC50 on intracellular calcium influx. Here is the method:
The cell line can modulate the expression of VR-1, depending on whether doxycycline, a derivative of tetracycline, is present or not. […] Specifically, hVR-1-HEK293 cells were cultured in a T75 flask to about 80% confluency, separated from the flask by treating with trypsin solution, and then collected by centrifugation. The cells were suspended in a medium containing 1 μg/mL of doxycycline, and the resulting suspension was diluted to a concentration of 2˜4×10^5 cells/mL […], of the cell suspension was placed in each well of a 96-well black plate. The cells were cultured in 5% CO2 incubator at 37° C. for 2 days, and used for the following procedure. […] The cells prepared in 1) above were cultured at 37° C. for 90 min in a solution containing Fluo-3/AM, a fluorescent dye, as a calcium indicator so that the fluorescent dye was permeated into the cells. […] In order to stimulate calcium influx through a vanilloid receptor, the cells were treated with 1 μM of capsaicin. […] The obtained data were input to the Hill equation represented by the following formula I and the values were analyzed: Intracellular calcium influx= [(fluorescent intensity of experimental group−fluorescent intensity of background)/(fluorescent intensity of positive control−fluorescent intensity of background)]*100 [Formula I] The inhibitory activities were evaluated from the obtained intracellular calcium influx values according to the following criteria.
In general terms: A change in cytosolic calcium serves as a functional read-out for many receptors and channels.

Another assay has as its system ICR male mice. The assay is described as follows: Phenyl-p-quinone (PBQ)-induced writhing experiment using mice. The format is in vivo. Conditions: orally administered, PBQ (0.02%) intraperitoneally after 1 hour; for I.A. (inhibitory activity), % inhibition rate of writhing: writhing counted for 10 min. Here is the method:
In order to evaluate the effect on pain of the compounds prepared in the Examples, behaviors such as twisting or writhing of body resulted from pain were verified by the phenyl-p-quinone (PBQ)-induced writhing experiment using mice. 5 week-old ICR male mice were used as experimental animals and PBQ (0.02%), as a chemical stimulator. The suspensions of 20 mg of the compounds of the present invention and an excipient such as Na—CMC (sodium carboxymethyl cellulose) in 10 mL of saline were used as test compounds. The test compounds were orally administered to the mice and after 1 hour, PBQ was intraperitoneally administrated in an amount of 10 mL per kg of body weight. Also, as a control group, equivalent amounts of BCTC were administered. The writhing number of each mouse was measured for 10 min starting from 5 min after the administration, and the analgesic effect was verified by counting the reduced number compared to the control group administered with only excipient and calculating the % inhibitory rate according to the following Formula 2. % inhibition rate=(writhing # of control group−writhing # of test group)/writhing # of control group×100 [Formula 2]
(In general: Writhing tests count abdominal constrictions after an irritant is injected.)

T1 sequence (Q8NER1 whole entry): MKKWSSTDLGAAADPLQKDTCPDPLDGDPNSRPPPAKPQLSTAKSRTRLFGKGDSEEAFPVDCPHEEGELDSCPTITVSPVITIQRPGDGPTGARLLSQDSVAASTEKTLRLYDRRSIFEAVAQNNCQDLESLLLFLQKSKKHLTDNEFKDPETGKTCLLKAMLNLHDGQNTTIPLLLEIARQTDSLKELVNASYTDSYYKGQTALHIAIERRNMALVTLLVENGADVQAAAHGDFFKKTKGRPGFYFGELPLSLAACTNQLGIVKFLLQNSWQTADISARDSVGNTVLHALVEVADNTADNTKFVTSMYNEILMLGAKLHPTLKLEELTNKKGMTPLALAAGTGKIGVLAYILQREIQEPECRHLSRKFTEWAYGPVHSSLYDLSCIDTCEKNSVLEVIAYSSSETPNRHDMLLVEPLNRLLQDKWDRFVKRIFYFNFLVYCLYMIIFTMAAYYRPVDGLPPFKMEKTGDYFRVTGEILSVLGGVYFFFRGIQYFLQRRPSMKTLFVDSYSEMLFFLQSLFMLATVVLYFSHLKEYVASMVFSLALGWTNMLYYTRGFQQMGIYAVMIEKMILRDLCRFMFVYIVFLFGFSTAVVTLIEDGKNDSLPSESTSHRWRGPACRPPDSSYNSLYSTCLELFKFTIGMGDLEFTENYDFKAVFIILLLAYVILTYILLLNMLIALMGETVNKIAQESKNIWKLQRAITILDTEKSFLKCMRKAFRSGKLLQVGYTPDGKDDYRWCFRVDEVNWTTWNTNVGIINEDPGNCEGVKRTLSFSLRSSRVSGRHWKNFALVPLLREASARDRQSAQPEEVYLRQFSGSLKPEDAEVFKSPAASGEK

By IC50 is commonly meant the concentration that gives 50% inhibition. Consider `FC(F)(F)c1ccc2nc(-c3cccc4c3OCCN4c3ncc(Cl)cc3Cl)[nH]c2c1` [Example 18, 4-(3,5-dichloro-pyridin-2-yl)-8-(6-trifluoromethyl-1H-benzimidazol-2-yl)-3,4-dihydro-2H-benzo[1,4]oxazine], for which the half-maximal inhibitory concentration (IC50) in assay [1] was 20 to 100 nM. In addition, the “I.A. (inhibitory activity), % inhibition rate of writhing” value with ICR male mice is given as “+ (<20%)”.

On to `FC(F)(F)c1ccc2nc(-c3cccc4c3OCCN4c3ccc(Br)cn3)[nH]c2c1` [Example 19, 4-(5-bromo-pyridin-2-yl)-8-(6-trifluoromethyl-1H-benzimidazol-2-yl)-3,4-dihydro-2H-benzo[1,4]oxazine], for which, in assay [1], the IC50 is 20 to 100 nM. For the same compound, the “I.A. (inhibitory activity), % inhibition rate of writhing” value with ICR male mice is on record as “++ (20˜50%)”.

As to `FC(F)(F)c1ccc2nc(-c3cccc4c3OCCN4c3ccc(Cl)cn3)[nH]c2c1` [Example 20, 4-(5-chloro-pyridin-2-yl)-8-(6-trifluoromethyl-1H-benzimidazol-2-yl)-3,4-dihydro-2H-benzo[1,4]oxazine], the IC50 in assay [1] fell in the range of 20 to 100 nM. Further, the “I.A. (inhibitory activity), % inhibition rate of writhing” value in the assay on ICR male mice is on record as “++ (20˜50%)”.

As for `Cc1ccc(N2CCOc3c(-c4nc5ccc(C(F)(F)F)cc5[nH]4)cccc32)nc1` [Example 25, 4-(5-methyl-pyridin-2-yl)-8-(6-trifluoromethyl-1H-benzimidazol-2-yl)-3,4-dihydro-2H-benzo[1,4]oxazine], the 50% inhibitory concentration (IC50) in assay [1] lay in the range of 20 to 100 nM. Besides, in the assay on ICR male mice, the “I.A. (inhibitory activity), % inhibition rate of writhing” value is reported as “+ (<20%)”.

`C=Cc1ccc(N2c3cccc(-c4nc5c(C(F)(F)F)cc(C(F)(F)F)cc5[nH]4)c3OC[C@@H]2CO)nc1` [Example 71, ((S)-8-(4,6-bis(trifluoromethyl)-1H-benzo[d]imidazol-2-yl)-4-(5-vinyl-pyridin-2-yl)-3,4-dihydro-2H-benzo[b][1,4]oxazin-3-yl)-methanol]: in assay [1], the 50% inhibitory concentration (IC50) was in the range of 101 to 500 nM.

Take `C=Cc1ccc(N2c3cccc(-c4nc5ccc(OC)cc5[nH]4)c3OC[C@@H]2CO)nc1` [Example 72, (S)-(8-(6-methoxy-1H-benzo[d]imidazol-2-yl)-4-(5-vinyl-pyridin-2-yl)-3,4-dihydro-2H-benzo[b][1,4]oxazin-3-yl)methanol]: the IC50 in assay [1] fell in the range of 501 to 1000 nM.

Turning to `C=Cc1ccc(N2c3cccc(-c4nc5ccc(C#N)cc5[nH]4)c3OC[C@@H]2CO)nc1` [Example 73, (S)-2-(3-(hydroxymethyl)-4-(5-vinyl-pyridin-2-yl)-3,4-dihydro-2H-benzo[b][1,4]oxazin-8-yl)-1H-benzo[d]imidazol-6-carbonitrile], the 50% inhibitory concentration (IC50) in assay [1] is 101 to 500 nM.

For the compound `C=Cc1ccc(N2c3cccc(-c4nc5ccc(C)cc5[nH]4)c3OC[C@@H]2CO)nc1` [Example 74, (S)-(8-(6-methyl-1H-benzo[d]imidazol-2-yl)-4-(5-vinyl-pyridin-2-yl)-3,4-dihydro-2H-benzo[b][1,4]oxazin-3-yl)methanol], the IC50 in assay [1] fell in the range of 101 to 500 nM.

With `C=Cc1ccc(N2c3cccc(-c4nc5ccccc5[nH]4)c3OC[C@@H]2CO)nc1` [Example 75, (S)-(8-(1H-benzo[d]imidazol-2-yl)-4-(5-vinyl-pyridin-2-yl)-3,4-dihydro-2H-benzo[b][1,4]oxazin-3-yl)methanol], the half-inhibitory concentration (IC50) in assay [1] lay in the range of 101 to 500 nM.

`C=Cc1ccc(N2c3cccc(-c4nc5c(C)cccc5[nH]4)c3OC[C@@H]2CO)nc1` [Example 76, (S)-(8-(4-methyl-1H-benzo[d]imidazol-2-yl)-4-(5-vinyl-pyridin-2-yl)-3,4-dihydro-2H-benzo[b][1,4]oxazin-3-yl)methanol]: in assay [1], the half-maximal inhibitory concentration (IC50) fell in the range of 20 to 100 nM.

Regarding `C=Cc1ccc(N2c3cccc(-c4nc5c(C)c(C)ccc5[nH]4)c3OC[C@@H]2CO)nc1` [Example 77, (S)-(8-(4,5-dimethyl-1H-benzo[d]imidazol-2-yl)-4-(5-vinyl-pyridin-2-yl)-3,4-dihydro-2H-benzo[b][1,4]oxazin-3-yl)methanol], the IC50 in assay [1] lay in the range of 20 to 100 nM.

With `CCc1ccc(N2c3cccc(-c4nc5ccc(C(C)(C)C)cc5[nH]4)c3OC[C@@H]2CO)nc1` [Example 78, [(S)-8-(6-tert-butyl-1H-benzimidazol-2-yl)-4-(5-ethyl-pyridin-2-yl)-3,4-dihydro-2H-benzo[1,4]oxazin-3-yl]-methanol], in assay [1], the half-inhibitory concentration (IC50) was in the range of 20 to 100 nM.

Regarding `CCc1ccc(N2c3cccc(-c4nc5ccc(C(F)(F)F)cc5[nH]4)c3OC[C@@H]2CO)nc1` [Example 79, [(S)-4-(5-ethyl-pyridin-2-yl)-8-(6-trifluoromethyl-1H-benzimidazol-2-yl)-3,4-dihydro-2H-benzo[1,4]oxazin-3-yl]-methanol], the concentration for half-maximal inhibition (IC50) in assay [1] lay in the range of 20 to 100 nM.

On to `CCc1ccc(N2c3cccc(-c4nc5cc(F)c(F)cc5[nH]4)c3OC[C@@H]2CO)nc1` [Example 83, [(S)-8-(5,6-difluoro-1H-benzimidazol-2-yl)-4-(5-ethyl-pyridin-2-yl)-3,4-dihydro-2H-benzo[1,4]oxazin-3-yl]-methanol], for which, in assay [1], the IC50 was 20 to 100 nM.

For the compound `CCc1ccc(N2c3cccc(-c4nc5cc(F)c(Cl)cc5[nH]4)c3OC[C@@H]2CO)nc1` [Example 84, [(S)-8-(6-chloro-5-fluoro-1H-benzimidazol-2-yl)-4-(5-ethyl-pyridin-2-yl)-3,4-dihydro-2H-benzo[1,4]oxazin-3-yl]-methanol], in assay [1], the IC50 lay in the range of 20 to 100 nM.

As for `COC[C@H]1COc2c(-c3nc4c(Br)cc(OC(F)(F)F)cc4[nH]3)cccc2N1c1ccc(C)cn1` [Example 105, (S)-8-(4-bromo-6-trifluoromethoxy-1H-benzimidazol-2-yl)-3-methoxymethyl-4-(5-methyl-pyridin-2-yl)-3,4-dihydro-2H-benzo[1,4]oxazine], in assay [1], the 50% inhibitory concentration (IC50) was < 20 nM.

Turning to `COC[C@H]1COc2c(-c3nc4ccc(OC)cc4[nH]3)cccc2N1c1ccc(C)cn1` [Example 106, (S)-8-(6-methoxy-1H-benzo[d]imidazol-2-yl)-3-(methoxymethyl)-4-(5-methyl-pyridin-2-yl)-3,4-dihydro-2H-benzo[b][1,4]oxazine], the half-inhibitory concentration (IC50) in assay [1] was in the range of 101 to 500 nM.

Regarding `COC[C@H]1COc2c(-c3nc4c(F)cc(F)cc4[nH]3)cccc2N1c1ccc(C)cn1` [Example 107, (S)-8-(4,6-difluoro-1H-benzo[d]imidazol-2-yl)-3-(methoxymethyl)-4-(5-methyl-pyridin-2-yl)-3,4-dihydro-2H-benzo[b][1,4]oxazine], in assay [1], the IC50 was 501 to 1000 nM.

As for `COC[C@H]1COc2c(-c3nc4c(C)cccc4[nH]3)cccc2N1c1ccc(C)cn1` [Example 108, (S)-3-(methoxymethyl)-8-(4-methyl-1H-benzo[d]imidazol-2-yl)-4-(5-methyl-pyridin-2-yl)-3,4-dihydro-2H-benzo[b][1,4]oxazine], the 50% inhibitory concentration (IC50) in assay [1] lay within 101 to 500 nM.

With `COC[C@H]1COc2c(-c3nc4cc(C)ccc4[nH]3)cccc2N1c1ccc(C)cn1` [Example 109, (S)-3-(methoxymethyl)-8-(5-methyl-1H-benzo[d]imidazol-2-yl)-4-(5-methyl-pyridin-2-yl)-3,4-dihydro-2H-benzo[b][1,4]oxazine], the IC50 in assay [1] lay in the range of 101 to 500 nM.

For the compound `COC[C@H]1COc2c(-c3nc4ccccc4[nH]3)cccc2N1c1ccc(C)cn1` [Example 110, (S)-8-(1H-benzo[d]imidazol-2-yl)-3-(methoxymethyl)-4-(5-methyl-pyridin-2-yl)-3,4-dihydro-2H-benzo[b][1,4]oxazine], the IC50 in assay [1] fell in the range of 101 to 500 nM.

As for “N-(4-tert-butylphenyl)-4-(3-chloropyridin-2-yl)piperazin-1-carboxyamide [BCTC, reference compound]”, in the assay with ICR male mice, the “% inhibition rate of writhing” value worked out at 33% and the “I.A. (inhibitory activity), % inhibition rate of writhing” value is “++ (20˜50%)”.
